Patent US8859612B2, “Use of hesperidin or one of its derivatives for making a medicine for bone formation stimulation” (Institut National de la Recherche Agronomique (INRA), priority 2002, dated 2014)

Legend:
hPOB-tert cells [1] = assay: Alkaline phosphatase activity in hPOB-tert cells (Example 2); type: cell-based, human
Protocol: (§1) We have tested three concentrations of hesperetin in the hPOB culture medium seeded to confluence: 1, 10 and 50 μM. Furthermore, these media lacked osteoblast differentiation factors (Vitamin D3 and dexamethasone). The control contained 0.1% DMSO (hesperetin being dissolved in the DMSO). The cells were incubated in these media for 35 days. The alkaline phosphatase activity, a marker of osteoblast differentiation, was measured on a cell lysate by using a commercial kit (Sigma No 247). The cells had been harvested at 0, 4, 8 and 12 days of incubation. The calcium content of the cells, the mineralisation marker, was quantified on a cell lysate after 21 days of incubation in the different media, with the aid of a commercial kit (Sigma No587).

hPOB-tert cells [2] = assay: Accumulation of calcium in hPOB-tert cells (Example 2); type: cell-based, human; conditions: hesperetin 50 μM, 21 days of incubation, vs control cells (0.1% DMSO)
Protocol: as §1

[3] = tested on: oophorectomised rat (OVX) and sham-operated control rats (SH); assay: Uterine weight (Example 1); type: in vivo, Wistar rats; conditions: 3 months; for uterine weight: hesperidin 0.5% in diet
Source text: (§2) In order to study the possible impact of this molecule on bone tissue, 40 female 3 months old Wistar rats (266±2 g) were used. These animals were accustomed to a basic semi-synthetic diet for the 7 days preceding the start of the period of experimentation. At D0, 20 rats were sham-operated, the other 20 were oophorectomised. Distributed in groups of 10, they were fed on various diets for 3 months, at the end of which they were sacrificed. The last week before being killed, from D85 to D90, the rats were inspected and the urine was collected (over a period of 24 hours). Similarly, the body composition of the rats was measured. After being killed the plasma and the femurs were collected for different analyses [Femurs: resistance to rupture, densitometry; Plasma: osteocalcinemia (marker for osteoblast activity), hesperetin level: Urines: desoxypyridinoline (marker for bone resorption)]. Throughout the entire duration of the experimentation, the rats were weighed once a week. The daily quantity of food distributed to each animal was 20 g.
(§3) 10 T SH and 10 T OVX: sham-operated and oophorectomised rats receiving a standard control diet for 3 months
(§4) 10 Hp SH et 10 Hp OVX: sham-operated and oophorectomised rats receiving a standard control diet supplemented with hesperidin (0.5%) for 3 months
The uterine weight was evaluated in order to validate the castration.

[4] = tested on: oophorectomised rat (OVX) and sham-operated control rats (SH); assay: Femoral densitometry (Example 1); type: in vivo, Wistar rats; conditions: for Total femoral density (T-BMD): hesperidin 0.5% in diet, 3 months
Source text: as §2, §3, §4
The densities are expressed in g/cm^2.

[5] = tested on: six months' old oophorectomised rat; assay: Uterine weight, six months' old rats (Example 3); type: in vivo, Wistar rats
Protocol: (§5) The experiments were performed on 48 six months' old female Wistar rats: 24 oophorectomised (OVX) and 24 sham-operated (SH).
(§6) After the surgical operation on D0, the animals were given seven days to accustom themselves to their surroundings. At the end of this period of adaptation, the rodents were distributed on the basis of weight parameters in 4 homogeneous groups and received daily for 72 days 22 g of the following diets: • group SH: 12 sham-operated rats fed with the control diet • group OVX: 12 oophorectomised rats which received the control diet • group SH Hp: 12 sham-operated rats fed with the hesperidin diet • group OVX Hp: 12 oophorectomised rats which received the hesperidin diet
When sacrificed (D90), the animals were anesthetised by an intra-peritoneal injection of chloral (Fluka: 8% solution; 0.4 ml/100 g live weight). Blood samples were collected from the abdominal aorta. The uterus was weighed.

[6] = tested on: oophorectomised rat (OVX) and sham-operated control rats (SH); assay: Plasma levels of osteocalcin, marker for osteoblast activity (Example 1); type: in vivo, Wistar rats; conditions: Hp SH vs T SH, p<0.05 (FIG. 4)
Source text: as §2, §3, §4

[7] = tested on: oophorectomised rat (OVX) and sham-operated control rats (SH); assay: Urinary excretion of desoxypyridinoline, marker for bone resorption (Example 1); type: in vivo, Wistar rats
Source text: as §2, §3, §4

[8] = Circulating levels of hesperetin (Example 1); type: in vivo, Wistar rats; conditions: OVX and SH rats receiving diet supplemented with hesperidin 0.5%, 3 months
Source text: as §2, §4

[9] = tested on: six months' old oophorectomised rat; assay: Biomechanical properties of the femur, six months' old rats (Example 3); type: in vivo, Wistar rats; conditions: hesperidin diet (FIG. 14)
Protocol: as §5, §6
The mechanical properties of the femur of the individuals of the different groups of animals were analysed.

[10] = tested on: six months' old oophorectomised rat; assay: Bone mineral density of the femur, six months' old rats (Example 3); type: in vivo, Wistar rats; conditions: six months' old OVX rats, consumption of hesperidin (FIG. 11)
Protocol: as §5, §6
The femurs were extracted and adjacent soft tissues were removed, then the femurs were stored in 80% ethanol for the determination of bone density.

[11] = tested on: oophorectomised rat (OVX) and sham-operated control rats (SH); assay: Femoral biomechanics (Example 1); type: in vivo, Wistar rats
Source text: as §2, §3, §4

Compound: COc1ccc([C@@H]2CC(=O)c3c(O)cc(O)cc3O2)cc1O [hesperetin, (S)-2,3-dihydro-5,7-dihydroxy-2-(3-hydroxy-4-methoxyphenyl)-4H-1-benzopyran-4-one]
- alkaline phosphatase activity (osteoblast differentiation) (hPOB-tert cells [1]; hesperetin 1 μM, vs untreated cells, no vitamin D3 or dexamethasone): lacks effect
- alkaline phosphatase activity (osteoblast differentiation) (hPOB-tert cells [1]; hesperetin 10 μM, from the 4th day onwards, plateau on the 8th day): increase
- alkaline phosphatase activity (osteoblast differentiation) (hPOB-tert cells [1]; hesperetin 50 μM, from the 4th day onwards, plateau on the 8th day): most efficacious
- calcium deposition (calcium content of the cells) (hPOB-tert cells [2]): stimulate calcium deposition

Compound: COc1ccc([C@@H]2CC(=O)c3c(O)cc(O[C@@H]4O[C@H](CO[C@@H]5O[C@@H](C)[C@H](O)[C@@H](O)[C@H]5O)[C@@H](O)[C@H](O)[C@H]4O)cc3O2)cc1O [hesperidin, (S)-7-[[6-0-(6-deoxy-α-L-mannopyranosyl)-β-D-glucopyranosyl]oxy]-2,3-dihydro-5-hydroxy-2-(3-hydroxy-4-methoxyphenyl)-4H-1-benzopyran-4-one]
- uterine weight ([3]; Hp OVX: oophorectomised rats, ** p<0.01 vs SH): 238.6 ± 2.23** mg
- uterine weight ([3]; Hp SH: sham-operated rats): 659.4 ± 8.96 mg
- uterotrophic effect ([3]; uterine weight not modified by consumption of hesperidin 0.5% in diet): lack a uterotrophic effect
- Total femoral density (T-BMD) ([4]; Hp OVX: oophorectomised rats): 0.2445 g/cm^2
- Total femoral density (T-BMD) ([4]; Hp SH: sham-operated rats): 0.2501 g/cm^2
- diaphyseal femoral density, effect in words ([4]; both OVX and SH rats vs groups on standard diet, p<0.05): significantly improves
- metaphyseal femoral density (M-BMD) ([4]; intact or oophorectomised rats on hesperidin diet vs standard diet (FIG. 2)): increase
- metaphyseal femoral density (M-BMD), mineralisation ([4]; non-castrated animals, by comparison with T SH): improvement of the mineralisation
- total femoral density, effect on demineralisation induced by oophorectomy ([4]; oophorectomised rats, consumption of hesperidin): completely prevents this demineralisation
- total femoral density, effect in words ([4]; sham-operated (SH) rats, consumption of hesperidin): significantly improves
- uterine atrophy following ovarian ablation ([5]; OVX rats, consumption of hesperidin (FIG. 10)): not prevented
- uterotrophic effect ([5]; six months' old rats, hesperidin diet (FIG. 10)): lacks a uterotrophic effect
- plasma levels of osteocalcin (bone accretion) [6]: stimulates bone accretion
- urinary excretion of DPD ([7]; Hp SH rats in comparison with T SH): significantly diminished
- urinary excretion of desoxypyridinoline: increase of bone resorption induced by oophorectomy ([7]; OVX rats, consumption of hesperidin (FIG. 3)): prevented
- mean plasma level of aglycone (hesperetin) [8]: 12.53 ± 2.48 µM
- biomechanical properties of the femur (femoral load at rupture) ([9]; OVX Hp: six months' old oophorectomised rats): preserve them
- biomechanical properties of the femur (femoral load at rupture) ([9]; intact (sham-operated) six months' old rats): improve them
- demineralisation of the femur (total bone mineral density) [10]: prevented (at least partially)
- Femoral resistance to rupture ([11]; Hp SH: sham-operated rats, hesperidin 0.5% in diet, 3 months): 106.3 ± 5.3 N
- femoral resistance to rupture, effect in words ([11]; oophorectomised rats, diet supplemented with hesperidin): tendency to improve
